According to patent publication US7342032B2 (dated 2008):

melting point | Compound
171 to 173 °C | O=C(NN1CCCCC1)c1nc(-c2ccc(Cl)cc2Cl)c(-c2ccc(Br)cc2)s1
185 to 186 °C | O=C(NN1CCCCCC1)c1nc(-c2ccc(Cl)cc2Cl)c(-c2ccc(Cl)cc2)s1
167 to 168 °C | O=C(Nc1ccccc1)c1nc(-c2ccc(Cl)cc2Cl)c(-c2ccc(Cl)cc2)s1
99 to 101 °C | O=C(NCCCC(F)(F)F)c1nc(-c2ccc(Cl)cc2Cl)c(-c2ccc(Cl)cc2)s1
